Like-named read-outs stand apart in the source and are kept apart here.
Legend:
Assay type in all cases: cell-based, human
SK-BR-3 = experiment: SRB colorimetric assay of cell growth and viability, SK-BR-3; conditions: 48 hours exposure
HeLa-APL = experiment: SRB colorimetric assay of cell growth and viability, HeLa-APL; conditions: 48 hours exposure; for CC50: read-out: LC50 HELA-APL
IGROV-ET = experiment: SRB colorimetric assay of cell growth and viability, IGROV-ET; conditions: 48 hours exposure; for CC50: read-out: LC50 IGROV-ET
LoVo-Dox = experiment: SRB colorimetric assay of cell growth and viability, LoVo-Dox; conditions: 48 hours exposure; for CC50: read-out: LC50 LOVO-DOX
How it was run: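 First, 5×10^3 cells per well attach for 18 hours in RPMI 1640 with 10% FBS at 37° C and 5% CO2. Next, samples spanning 10 to 10^−8 μg/mL are added for 48 hours. Finally, cells are fixed with TCA, stained with SRB for 10 minutes and read at 490 nm.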

K-562 = experiment: SRB colorimetric assay of cell growth and viability, K-562; conditions: 48 hours exposure; for CC50: read-out: LC50 K-562
IGROV-1 = experiment: SRB colorimetric assay of cell growth and viability, IGROV-1; conditions: 48 hours exposure
LoVo = experiment: SRB colorimetric assay of cell growth and viability, LoVo; conditions: 48 hours exposure; for CC50: read-out: LC50 LOVO
PANC-1 = experiment: SRB colorimetric assay of cell growth and viability, PANC-1; conditions: 48 hours exposure; for CC50: read-out: LC50 PANC-1
DU-145 = experiment: SRB colorimetric assay of cell growth and viability, DU-145; conditions: 48 hours exposure
A-549 = experiment: SRB colorimetric assay of cell growth and viability, A-549; conditions: 48 hours exposure; for GI50: read-out: GI50 A-549; for CC50: read-out: LC50 A-549
SK-MEL-28 = experiment: SRB colorimetric assay of cell growth and viability, SK-MEL-28; conditions: 48 hours exposure; for CC50: read-out: LC50 MEL-28
LNCaP = experiment: SRB colorimetric assay of cell growth and viability, LNCaP; conditions: 48 hours exposure; for GI50: read-out: GI50 LN-caP; for CC50: read-out: LC50 LN-caP
HeLa = experiment: SRB colorimetric assay of cell growth and viability, HeLa; conditions: 48 hours exposure; for CC50: read-out: LC50 HELA
HT-29 = experiment: SRB colorimetric assay of cell growth and viability, HT-29; conditions: 48 hours exposure; for GI50: read-out: GI50 HT-29; for CC50: read-out: LC50 HT-29

How did the GI50 (SK-BR-3; SRB) turn out when `C/C=C1\NC(=O)[C@H](Cc2ccccc2)NC(=O)[C@@H](C(C)C)NC(=O)[C@@H]([C@@H](C)CC)NC(=O)[C@H](NC(=O)[C@H](NC(=O)[C@H](CCCNC(=O)C(F)(F)F)NC(=O)[C@H]2CCCN2C(=O)[C@H](NC(=O)[C@@H](NC(=O)[C@@H](NC(=O)[C@H](NC(=O)CC[C@@H](C)CC)C(C)C)[C@@H](C)OC(=O)C(F)(F)F)C(C)C)C(C)C)[C@@H](C)CC)[C@@H](C)OC(=O)[C@H](C(C)C)NC1=O` [Compound 95, [Orn(N^δTfa)^8,Thr(OTfa)^12, 4(S)MeHex^14]-Kahalalide F] was run?
Its GI50 is 73.1 nM.

And the LC50 (SK-BR-3; SRB)?
The LC50 was 520 nM.

And the “TGI SK-BR-3” value (SK-BR-3; SRB)?
The value was 1.95E−07 Molar.

And the GI50 (HeLa-APL; SRB)?
Its GI50 is 617 nM.

And the “TGI HELA-APL” value (HeLa-APL; SRB)?
The value was 1.52E−06 Molar.

What about the CC50 (HeLa-APL; SRB) of the same molecule?
Its CC50 is 3740 nM.

And the GI50 (IGROV-ET; SRB)?
The GI50 was 219 nM.

And the “TGI IGROV-ET” value (IGROV-ET; SRB)?
The value was 3.77E−07 Molar.

What about the CC50 (IGROV-ET; SRB) of the same molecule?
The CC50 was 916 nM.

And the GI50 (LoVo-Dox; SRB)?
The GI50 was 124 nM.

And the “TGI LOVO-DOX” value (LoVo-Dox; SRB)?
The value was 2.41E−07 Molar.

And the CC50 (LoVo-Dox; SRB)?
Its CC50 is 471 nM.

And the GI50 (K-562; SRB)?
The GI50 was 3570 nM.

And the “TGI K-562” value (K-562; SRB)?
Its value is 5.99E−06 Molar.

And the CC50 (K-562; SRB)?
Its CC50 is 5990 nM.

What about the GI50 (IGROV-1; SRB) of the same molecule?
Its GI50 is 178 nM.

And the LC50 (concentration causing 50% net cell killing) (IGROV-1; SRB)?
Its LC50 (concentration causing 50% net cell killing) is 550 nM.

What about the “TGI IGROV” value (IGROV-1; SRB) of the same molecule?
Its value is 3.13E−07 Molar.

And the GI50 (LoVo; SRB)?
Its GI50 is 125 nM.

What about the “TGI LOVO” value (LoVo; SRB) of the same molecule?
Its value is 2.34E−07 Molar.

What about the CC50 (LoVo; SRB) of the same molecule?
Its CC50 is 437 nM.

And the GI50 (PANC-1; SRB)?
The GI50 was 3580 nM.

And the “TGI PANC-1” value (PANC-1; SRB)?
The value was 5.99E−06 Molar.

And the CC50 (PANC-1; SRB)?
Its CC50 is 5990 nM.

What about the GI50 (DU-145; SRB) of the same molecule?
The GI50 was 892 nM.

And the LC50 (concentration causing 50% net cell kill) (DU-145; SRB)?
Its LC50 (concentration causing 50% net cell kill) is 3360 nM.

What about the “TGI DU-145” value (DU-145; SRB) of the same molecule?
The value was 1.73E−06 Molar.

And the “TGI A-549” value (A-549; SRB)?
Its value is 2.29E−06 Molar.

What about the GI50 (A-549; SRB) of the same molecule?
The GI50 was 1150 nM.

What about the CC50 (A-549; SRB) of the same molecule?
The CC50 was 4550 nM.

What about the GI50 (SK-MEL-28; SRB) of the same molecule?
Its GI50 is 1030 nM.

And the “TGI MEL-28” value (SK-MEL-28; SRB)?
The value was 1.84E−06 Molar.

And the CC50 (SK-MEL-28; SRB)?
The CC50 was 3280 nM.

What about the “TGI LN-caP” value (LNCaP; SRB) of the same molecule?
The value was 5.99E−06 Molar.

What about the GI50 (LNCaP; SRB) of the same molecule?
Its GI50 is 1700 nM.

What about the CC50 (LNCaP; SRB) of the same molecule?
Its CC50 is 5990 nM.

And the GI50 (HeLa; SRB)?
The GI50 was 162 nM.

And the “TGI HELA” value (HeLa; SRB)?
The value was 3.06E−07 Molar.

What about the CC50 (HeLa; SRB) of the same molecule?
The CC50 was 579 nM.

What about the “TGI HT-29” value (HT-29; SRB) of the same molecule?
The value was 1.93E−07 Molar.

And the GI50 (HT-29; SRB)?
The GI50 was 86.2 nM.

And the CC50 (HT-29; SRB)?
Its CC50 is 432 nM.

Which results are given for `C/C=C1\NC(=O)[C@H](Cc2ccccc2)NC(=O)[C@@H](C(C)C)NC(=O)[C@@H]([C@@H](C)CC)NC(=O)[C@H](NC(=O)[C@H](NC(=O)[C@H](CCCN)NC(=O)[C@H]2CCCN2C(=O)[C@H](NC(=O)[C@@H](NC(=O)[C@@H](NC(=O)[C@H](NC(=O)CCCCCCC)C(C)C)[C@@H](C)O)C(C)C)C(C)C)[C@@H](C)CC)[C@@H](C)OC(=O)[C@H](C(C)C)NC1=O` [Compound 18, [Oct^14]-KF]?
GI50 (SK-BR-3): 121 nM; LC50 (SK-BR-3): 536 nM; TGI SK-BR-3 (SK-BR-3): 3.02E−07 Molar; GI50 (HeLa-APL): 536 nM; TGI HELA-APL (HeLa-APL): 1.07E−06 Molar; CC50 (HeLa-APL): 3350 nM; GI50 (IGROV-ET): 147 nM; TGI IGROV-ET (IGROV-ET): 3.02E−07 Molar; CC50 (IGROV-ET): 2010 nM; GI50 (LoVo-Dox): 107 nM; TGI LOVO-DOX (LoVo-Dox): 1.68E−07 Molar; CC50 (LoVo-Dox): 335 nM; GI50 (K-562): 2410 nM; CC50 (K-562): 4020 nM; GI50 (IGROV-1): 168 nM; LC50 (concentration causing 50% net cell killing) (IGROV-1): 1070 nM; TGI IGROV (IGROV-1): 3.02E−07 Molar; GI50 (LoVo): 188 nM; TGI LOVO (LoVo): 2.68E−07 Molar; CC50 (LoVo): 402 nM; GI50 (PANC-1): 2010 nM; TGI PANC-1 (PANC-1): 3.35E−06 Molar; CC50 (PANC-1): 6030 nM; GI50 (DU-145): 149 nM; LC50 (concentration causing 50% net cell kill) (DU-145): 1470 nM; TGI DU-145 (DU-145): 6.70E−07 Molar; TGI A-549 (A-549): 2.82E−07 Molar; GI50 (A-549): 134 nM; CC50 (A-549): 1210 nM; GI50 (SK-MEL-28): 670 nM; TGI MEL-28 (SK-MEL-28): 1.14E−06 Molar; CC50 (SK-MEL-28): 1680 nM; TGI LN-caP (LNCaP): 1.34E−06 Molar; GI50 (LNCaP): 402 nM; CC50 (LNCaP): 3350 nM; GI50 (HeLa): 288 nM; TGI HELA (HeLa): 8.04E−07 Molar; CC50 (HeLa): 1680 nM; TGI HT-29 (HT-29): 3.22E−07 Molar; GI50 (HT-29): 201 nM; CC50 (HT-29): 536 nM

Reference: patent publication US20070117743A1, “New antitumoral compounds” (priority 2003, published 2007)
